This note sets out measurements from ChEMBL document CHEMBL1137021, “The phenolic diterpene totarol inhibits multidrug efflux pump activity in Staphylococcus aureus” (Antimicrob Agents Chemother, 2007).

Converted amounts (≈) assume the structure as drawn. The source made the active and inactive calls. The rule behind the calls is not given here.

The subject of assay [1] is Staphylococcus aureus. Kind of assay: Antimicrobial activity against totarol-resistant Staphylococcus aureus K3090. Type of assay: functional.
The subject of assay [2] is Staphylococcus aureus. Briefly: Antimicrobial activity against NorA deficient Staphylococcus aureus K1758. Type of assay: functional.
Assay [3] relates to Staphylococcus aureus. Kind of assay: Antimicrobial activity against Staphylococcus aureus K3092 overexpressing NorA gene. Type of assay: functional.
Assay [4] deals with Staphylococcus aureus. Briefly: Antimicrobial activity against Staphylococcus aureus NCTC 8325-4 expressing NorA gene. Format: functional.
The target in assay [5] is T1, Quinolone resistance protein NorA (Staphylococcus aureus, UniProt P0A0J7).
T1 sequence (P0A0J7 whole entry): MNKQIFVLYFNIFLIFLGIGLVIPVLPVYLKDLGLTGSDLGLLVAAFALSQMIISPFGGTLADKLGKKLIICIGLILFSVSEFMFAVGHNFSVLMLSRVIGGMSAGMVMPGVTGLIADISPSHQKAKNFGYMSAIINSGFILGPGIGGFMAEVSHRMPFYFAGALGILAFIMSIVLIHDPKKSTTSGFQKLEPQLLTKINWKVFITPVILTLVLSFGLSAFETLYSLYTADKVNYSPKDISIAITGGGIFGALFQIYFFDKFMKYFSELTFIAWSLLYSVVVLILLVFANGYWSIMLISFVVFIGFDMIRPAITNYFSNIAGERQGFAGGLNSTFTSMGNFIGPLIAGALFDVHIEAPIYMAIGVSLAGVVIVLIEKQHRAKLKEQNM
Briefly: Inhibition of NorA efflux pump in Staphylococcus aureus K3092 assessed as inhibition of EtBr efflux.

Assay [6] has as its target T2, Quinolone resistance protein NorA (Staphylococcus aureus) (UniProt P0A0J7).
T2 sequence (whole entry): T1 sequence (P0A0J7 whole entry)
Briefly: Inhibition of NorA efflux pump in methicillin-resistant Staphylococcus aureus assessed as reduction in methicillin MIC.

Assay [7] has as its target T2, Quinolone resistance protein NorA (Staphylococcus aureus). Briefly: Inhibition of NorA efflux pump in Staphylococcus aureus 1199B assessed as reduction in Norfloxacin MIC at 1 ug/ml.
Assay [8] can be described thus: Ratio of inhibition of CHO cells to IC50 for chloroquine-resistant Plasmodium falciparum.
The next assay has as its system Plasmodium falciparum. Kind of assay: Antiplasmodial activity against chloroquine-resistant Plasmodium falciparum. Type of assay: functional, organism-based.
Assay [9] concerns Staphylococcus aureus. Briefly: Antimicrobial activity against Staphylococcus aureus RN4220 expressing MsrA protein. Type of assay: functional, organism-based.
Assay [10] has as its target T2, Quinolone resistance protein NorA (Staphylococcus aureus). Briefly: Inhibition of NorA efflux pump in Staphylococcus aureus 1199B assessed as reduction in ethidium bromide MIC.
In assay [11] the test system is Staphylococcus aureus. Kind of assay: Inhibition of MsrA efflux pump in Staphylococcus aureus RN4220 assessed as reduction in erythromycin MIC at 1 ug/ml.
For assay [12], the system named is Staphylococcus aureus. Briefly: Antimicrobial activity against Staphylococcus aureus 1199B expressing NorA pump. Format: functional, organism-based.
The target of assay [13] is T2, Quinolone resistance protein NorA (Staphylococcus aureus). Briefly: Inhibition of NorA efflux pump in Staphylococcus aureus isolate15 assessed as potentiation of oxacillin MIC.
Assay [14] concerns Staphylococcus aureus. Briefly: Antimicrobial activity against Staphylococcus aureus XU212 expressing tetK pump. Type of assay: functional, organism-based.
Assay [15] concerns Staphylococcus aureus. Briefly: Antimicrobial activity against Staphylococcus aureus ATCC 25923. Format: functional.
Assay [16] has as its system Staphylococcus aureus. Kind of assay: Inhibition of tetK efflux pump in Staphylococcus aureus XU212 assessed as reduction in tetracycline MIC at 1 ug/ml.
Assay [17] addresses T2, Quinolone resistance protein NorA (Staphylococcus aureus). Briefly: Inhibition of NorA efflux pump in Staphylococcus aureus K3092 assessed as reduction in ethidium bromide MIC.

Consider `CC[n+]1c(-c2ccccc2)c2cc(N)ccc2c2ccc(N)cc21.[Br-]` [HOMIDIUM BROMIDE], for which the MIC (in general, the lowest concentration that inhibits growth of the organism) in the assay on Staphylococcus aureus [1] was 0.63 mg/L; against Staphylococcus aureus [2], 0.63 mg/L; against Staphylococcus aureus [3], 100 mg/L; in the assay on Staphylococcus aureus [4] it was 6.25 mg/L.

`COC(=O)[C@H]1[C@H]2C[C@@H]3c4[nH]c5cc(OC)ccc5c4CCN3C[C@H]2C[C@@H](OC(=O)c2cc(OC)c(OC)c(OC)c2)[C@@H]1OC` [RESERPINE]: the IC50 (usually the midpoint of a concentration-inhibition curve) in assay [5] was 8 µM.

Consider `CC(C)c1c(O)ccc2c1CC[C@H]1C(C)(C)CCC[C@]21C` [TOTAROL], for which the fold change (FC) in assay [6] stood at 8; in assay [7] it was 4; in the assay with Staphylococcus aureus [11], 8; in assay [13] it was 50; in the assay on Staphylococcus aureus [16], 4. The Ratio in [8] is listed as 40. The MIC against Staphylococcus aureus [1] came to 16 mg/L (≈ 55.9 µM); with Staphylococcus aureus [2], 1.25 mg/L (≈ 4.36 µM); in the assay with Staphylococcus aureus [3] it was 16 mg/L (≈ 55.9 µM); against Staphylococcus aureus [4], 2.5 mg/L (≈ 8.73 µM); against Staphylococcus aureus [15], 2 mg/L (≈ 6.98 µM). Moreover, the IC50 in the assay with Plasmodium falciparum worked out at 4.29 µM; in assay [5], 15 µM. Further, the result (with Staphylococcus aureus [9]; in assay [10]; in the assay with Staphylococcus aureus [12]; in the assay on Staphylococcus aureus [14]; in [17]) was Active.
